Test results from US11180462B2, “Microbiocidal oxadiazole derivatives” (SYNGENTA PARTICIPATIONS AG, priority 2015, dated 2021).

Key:
[1] = tested on: Glomerella lagenarium (Colletotrichum lagenarium); test: Fungicidal activity against Glomerella lagenarium (Colletotrichum lagenarium) liquid culture / cucumber / preventative (anthracnose); format: cell-based; settings: Colletotrichum orbiculare; 20 ppm in the applied formulation; liquid culture (PDB), growth inhibition measured photometrically after 3 to 4 days; compared to untreated control; read-out: disease control
How it was run: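 Photometric read-out of fungal growth after 2–7 days, expressed as percent antifungal activity versus untreated check. Cryo-stored conidia in PDB; compound at 20 ppm; dark, 24 °C, 96% RH.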

[2] = tested on: Puccinia recondita f. Sp. Tritici; test: Fungicidal activity against Puccinia recondita f. sp. tritici / wheat / leaf disc preventative (brown rust); format: in vivo; settings: foliar, 200 ppm in the applied formulation, wheat leaf segments, preventative, compared to untreated control leaf disks, read-out: disease control
How it was run: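 Preventative leaf-segment test, wheat cv. Kanzler on water agar. Spray compound at 200 ppm, inoculate with spores 1 day later; 19° C., 75% rh, 12/12 h light. Read-out: % disease control vs untreated, 7 to 9 days after application.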

[3] = tested on: Puccinia recondita f. Sp. Tritici; test: Fungicidal activity against Puccinia recondita f. sp. tritici / wheat / leaf disc curative (brown rust); format: in vivo; settings: foliar, 24 h, 200 ppm in the applied formulation, wheat leaf segments, curative (applied 1 day after inoculation), compared to untreated control leaf disks, read-out: disease control
How it was run: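 Curative test on wheat leaf segments (cv. Kanzler) on agar, inoculated with spore suspension and held dark at 19° C, 75% RH; formulated compound in water applied 1 day after inoculation. Incubated at 19° C, 75% RH, 12 h light/12 h dark; percent disease control versus untreated scored 6 to 8 days after application.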

Phakopsora Pachyrhizi = test: Fungicidal activity against Phakopsora pachyrhizi / soybean / leaf disc preventative (Asian soybean rust); format: in vivo; settings: foliar, 200 ppm in the applied formulation, soybean leaf disks, compared to untreated control leaf disks, read-out: disease control
How it was run: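 Preventative soybean leaf-disc test: discs on water agar sprayed with diluted formulated compound, inoculated one day later with spores on the lower surface. Held 24–36 h dark at 20°C, 75% rh, then 12 h light/day; percent disease control versus untreated discs scored 12–14 days after application.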

COCCNC(=O)N(Cc1ccc(-c2noc(C(F)(F)F)n2)cc1)OC [Compound 3.2, 1-methoxy-3-(2-methoxyethyl)-1-[[4-[5-(trifluoromethyl)-1,2,4-oxadiazol-3-yl]phenyl]methyl]-urea]
≥ 80%: inhibition of growth at 20 ppm [1] | pest or weed control at 200 ppm [2] | pest or weed control at 200 ppm [3] | pest or weed control at 200 ppm (Phakopsora Pachyrhizi)

CNC(=O)N(Cc1ccc(-c2noc(C(F)(F)F)n2)cc1)OC [Compound 3.4, 1-methoxy-3-methyl-1-[[4-[5-(trifluoromethyl)-1,2,4-oxadiazol-3-yl]phenyl]methyl]urea]
≥ 80%: inhibition of growth at 20 ppm [1] | pest or weed control at 200 ppm [2] | pest or weed control at 200 ppm [3] | pest or weed control at 200 ppm (Phakopsora Pachyrhizi)

CON(Cc1ccc(-c2noc(C(F)(F)F)n2)cc1)C(=O)N(C)C [Compound 3.5, 1-methoxy-3,3-dimethyl-1-[[4-[5-(trifluoromethyl)-1,2,4-oxadiazol-3-yl]phenyl]methyl]urea]
≥ 80%: inhibition of growth at 20 ppm [1] | pest or weed control at 200 ppm [2] | pest or weed control at 200 ppm [3] | pest or weed control at 200 ppm (Phakopsora Pachyrhizi)

CCON(Cc1ccc(-c2noc(C(F)(F)F)n2)cc1)C(=O)N(C)OC [Compound 3.7, 1-ethoxy-3-methoxy-3-methyl-1-[[4-[5-(trifluoromethyl)-1,2,4-oxadiazol-3-yl]phenyl]methyl]urea]
≥ 80%: inhibition of growth at 20 ppm [1] | pest or weed control at 200 ppm [2] | pest or weed control at 200 ppm [3] | pest or weed control at 200 ppm (Phakopsora Pachyrhizi)

CON(Cc1ccc(-c2noc(C(F)(F)F)n2)cc1)C(=O)Nc1ccccc1 [Compound 3.8, 1-methoxy-3-phenyl-1-[[4-[5-(trifluoromethyl)-1,2,4-oxadiazol-3-yl]phenyl]methyl]urea]
≥ 80%: inhibition of growth at 20 ppm [1] | pest or weed control at 200 ppm [2] | pest or weed control at 200 ppm [3] | pest or weed control at 200 ppm (Phakopsora Pachyrhizi)

CCC(C)NC(=O)N(Cc1ccc(-c2noc(C(F)(F)F)n2)cc1)OC (stereo not drawn) [Compound 3.9, 1-methoxy-3-sec-butyl-1-[[4-[5-(trifluoromethyl)-1,2,4-oxadiazol-3-yl]phenyl]methyl]urea]
≥ 80%: inhibition of growth at 20 ppm [1] | pest or weed control at 200 ppm [2] | pest or weed control at 200 ppm [3] | pest or weed control at 200 ppm (Phakopsora Pachyrhizi)

CCNC(=O)N(Cc1ccc(-c2noc(C(F)(F)F)n2)cc1)OC [Compound 3.12, 3-ethyl-1-methoxy-1-[[4-[5-(trifluoromethyl)-1,2,4-oxadiazol-3-yl]phenyl]methyl]urea]
≥ 80%: inhibition of growth at 20 ppm [1] | pest or weed control at 200 ppm [2] | pest or weed control at 200 ppm [3] | pest or weed control at 200 ppm (Phakopsora Pachyrhizi)

CON(Cc1ccc(-c2noc(C(F)(F)F)n2)cc1)C(=O)NCC(C)C [Compound 3.13, 3-isobutyl-1-methoxy-1-[[4-[5-(trifluoromethyl)-1,2,4-oxadiazol-3-yl]phenyl]methyl]urea]
≥ 80%: inhibition of growth at 20 ppm [1] | pest or weed control at 200 ppm [2] | pest or weed control at 200 ppm [3] | pest or weed control at 200 ppm (Phakopsora Pachyrhizi)

CON(Cc1ccc(-c2noc(C(F)(F)F)n2)cc1)C(=O)NCc1ccccc1 [Compound 3.15, 3-benzyl-1-methoxy-1-[[4-[5-(trifluoromethyl)-1,2,4-oxadiazol-3-yl]phenyl]methyl]urea]
≥ 80%: inhibition of growth at 20 ppm [1] | pest or weed control at 200 ppm [2] | pest or weed control at 200 ppm [3] | pest or weed control at 200 ppm (Phakopsora Pachyrhizi)

CON(Cc1ccc(-c2noc(C(F)(F)F)n2)cc1)C(=O)NC1CCC1 [Compound 3.16, 3-cyclobutyl-1-methoxy-1-[[4-[5-(trifluoromethyl)-1,2,4-oxadiazol-3-yl]phenyl]methyl]urea]
≥ 80%: inhibition of growth at 20 ppm [1] | pest or weed control at 200 ppm [2] | pest or weed control at 200 ppm [3] | pest or weed control at 200 ppm (Phakopsora Pachyrhizi)

CCN(C)C(=O)N(Cc1ccc(-c2noc(C(F)(F)F)n2)cc1)OC [Compound 3.17, 1-ethyl-3-methoxy-1-methyl-3-[[4-[5-(trifluoromethyl)-1,2,4-oxadiazol-3-yl]phenyl]methyl]urea]
≥ 80%: inhibition of growth at 20 ppm [1] | pest or weed control at 200 ppm [2] | pest or weed control at 200 ppm [3] | pest or weed control at 200 ppm (Phakopsora Pachyrhizi)

CON(Cc1ccc(-c2noc(C(F)(F)F)n2)cc1)C(=O)NC(C)(C)C [Compound 3.19, 3-tert-butyl-1-methoxy-1-[[4-[5-(trifluoromethyl)-1,2,4-oxadiazol-3-yl]phenyl]methyl]urea]
≥ 80%: inhibition of growth at 20 ppm [1] | pest or weed control at 200 ppm [2] | pest or weed control at 200 ppm [3] | pest or weed control at 200 ppm (Phakopsora Pachyrhizi)

C=CCNC(=O)N(Cc1ccc(-c2noc(C(F)(F)F)n2)cc1)OC [Compound 3.20, 3-allyl-1-methoxy-1-[[4-[5-(trifluoromethyl)-1,2,4-oxadiazol-3-yl]phenyl]methyl]urea]
≥ 80%: inhibition of growth at 20 ppm [1] | pest or weed control at 200 ppm [2] | pest or weed control at 200 ppm [3] | pest or weed control at 200 ppm (Phakopsora Pachyrhizi)

CCCNC(=O)N(Cc1ccc(-c2noc(C(F)(F)F)n2)cc1)OC [Compound 3.21, 1-methoxy-3-propyl-1-[[4-[5 - (trifluoromethyl)-1,2,4-oxadiazol-3-yl]phenyl]methyl]urea]
≥ 80%: inhibition of growth at 20 ppm [1] | pest or weed control at 200 ppm [2] | pest or weed control at 200 ppm [3] | pest or weed control at 200 ppm (Phakopsora Pachyrhizi)

CONC(=O)N(Cc1ccc(-c2noc(C(F)(F)F)n2)cc1)OC [Compound 3.22, 1,3-dimethoxy-1-[[4-[5-(trifluoromethyl)-1,2,4-oxadiazol-3-yl]phenyl]methyl]urea]
≥ 80%: inhibition of growth at 20 ppm [1] | pest or weed control at 200 ppm [2] | pest or weed control at 200 ppm [3] | pest or weed control at 200 ppm (Phakopsora Pachyrhizi)

CON(Cc1ccc(-c2noc(C(F)(F)F)n2)cc1)C(=O)NC1CCCC1 [Compound 3.23, 3-cyclopentyl-1-methoxy-1-[[4-[5-(trifluoromethyl)-1,2,4-oxadiazol-3-yl]phenyl]methyl]urea]
≥ 80%: inhibition of growth at 20 ppm [1] | pest or weed control at 200 ppm [2] | pest or weed control at 200 ppm [3] | pest or weed control at 200 ppm (Phakopsora Pachyrhizi)

CON(Cc1ccc(-c2noc(C(F)(F)F)n2)cc1)C(=O)NCc1ccco1 [Compound 3.24, 3-(2-furylmethyl)-1-methoxy-1-[[4-[5-(trifluoromethyl)-1,2,4-oxadiazol-3-yl]phenyl]methyl]urea]
≥ 80%: inhibition of growth at 20 ppm [1] | pest or weed control at 200 ppm [2] | pest or weed control at 200 ppm [3] | pest or weed control at 200 ppm (Phakopsora Pachyrhizi)

CON(C)C(=O)N(Cc1ccc(-c2noc(C(F)(F)F)n2)cc1)CC(F)(F)F [Compound 3.25, 1-methoxy-1-methyl-3-(2,2,2-trifluoroethyl)-3-[[4-[5-(trifluoromethyl)-1,2,4-oxadiazol-3-yl]phenyl]methyl]urea]
≥ 80%: inhibition of growth at 20 ppm [1] | pest or weed control at 200 ppm [2] | pest or weed control at 200 ppm [3] | pest or weed control at 200 ppm (Phakopsora Pachyrhizi)

CN(C)C(=O)N(Cc1ccc(-c2noc(C(F)(F)F)n2)cc1)CC(F)(F)F [Compound 3.26, 1,1-dimethyl-3-(2,2,2-trifluoroethyl)-3-[[4-[5-(trifluoromethyl)-1,2,4-oxadiazol-3-yl]phenyl]methyl]urea]
≥ 80%: inhibition of growth at 20 ppm [1] | pest or weed control at 200 ppm [2] | pest or weed control at 200 ppm [3] | pest or weed control at 200 ppm (Phakopsora Pachyrhizi)

CCON(Cc1ccc(-c2noc(C(F)(F)F)n2)cc1)C(=O)N(C)C [Compound 3.28, 1-ethoxy-3,3-dimethyl-1-[[4-[5-(trifluoromethyl)-1,2,4-oxadiazol-3-yl]phenyl]methyl]urea]
≥ 80%: inhibition of growth at 20 ppm [1] | pest or weed control at 200 ppm [2] | pest or weed control at 200 ppm [3] | pest or weed control at 200 ppm (Phakopsora Pachyrhizi)

CCCN(Cc1ccc(-c2noc(C(F)(F)F)n2)cc1)C(=O)N(C)OC [Compound 3.30, 1-methoxy-1-methyl-3-propyl-3-[[4-[5-(trifluoromethyl)-1,2,4-oxadiazol-3-yl]phenyl]methyl]urea]
≥ 80%: inhibition of growth at 20 ppm [1] | pest or weed control at 200 ppm [2] | pest or weed control at 200 ppm [3] | pest or weed control at 200 ppm (Phakopsora Pachyrhizi)

CON(C)C(=O)N(Cc1ccc(-c2noc(C(F)(F)F)n2)cc1)C1CC1 [Compound 3.33, 1-cyclopropyl-3-methoxy-3-methyl-1-[[4-[5-(trifluoromethyl)-1,2,4-oxadiazol-3-yl]phenyl]methyl]urea]
≥ 80%: inhibition of growth at 20 ppm [1] | pest or weed control at 200 ppm [2] | pest or weed control at 200 ppm [3] | pest or weed control at 200 ppm (Phakopsora Pachyrhizi)

CCNC(=O)N(Cc1ccc(-c2noc(C(F)(F)F)n2)cc1)C1CC1 [Compound 3.34, 1-cyclopropyl-3-ethyl-1-[[4-[5-(trifluoromethyl)-1,2,4-oxadiazol-3-yl]phenyl]methyl]urea]
≥ 80%: inhibition of growth at 20 ppm [1] | pest or weed control at 200 ppm [2] | pest or weed control at 200 ppm [3] | pest or weed control at 200 ppm (Phakopsora Pachyrhizi)

O=C(NC1CC1)N(Cc1ccc(-c2noc(C(F)(F)F)n2)cc1)C1CC1 [Compound 3.36, 1,3-dicyclopropyl-1-[[4-[5-(trifluoromethyl)-1,2,4-oxadiazol-3-yl]phenyl]methyl]urea]
≥ 80%: inhibition of growth at 20 ppm [1] | pest or weed control at 200 ppm [2] | pest or weed control at 200 ppm [3] | pest or weed control at 200 ppm (Phakopsora Pachyrhizi)
